Tests used:
[1] = system: Watanabe heritable hypercholesterolemic rabbits (WHHL); experiment: Progression of established atherosclerosis in WHHL rabbits, morphologic analysis of aorta; format: in vivo, rabbit
Description: The degree of aortic atherosclerosis was evaluated by measuring the percent lesion area on the surface of the whole intimal (surface area of lesion/surface area of the whole intima) in the region between the aortic arch and the emergence of the renal arteries. Moreover, serial cross-sectional tissue samples (≈3 mm in length) taken from the aortic arch to the […] were post-fixed in paraformaldehyde (4% wt/vol.) and processed for histological analysis. The specimens were then embedded in paraffin, and 4-μm-thick sections were stained with hematoxylin and eosin (H&E). The ratio of intima to media (I/M ratio) was measured by computer-aided morphometric analysis in three consecutive cross-sectional sections of the aortic arch and the abdominal aorta, near the origin of the renal arteries, as described (Shindo J, et al., Circulation 1999; 99: 2150-2156). To avoid errors due to the heterogeneity of atherosclerotic lesions, the cross sections containing the thickest atherosclerotic lesions were selected individually from the aortic arch and used for the analysis of the cross-sectional areas of atherosclerotic lesions (Shindo J, et al., Circulation 1999; 99: 2150-2156). Percentage of the area occupied by macrophages and collagen were measured by computer-aided morphometric analysis on aortic cross sections stained immunohistochemically with RAM-11 antibody (DAKO Corp.) or Sirius red, respectively.

[2] = Plasma lipid and lipoprotein analyses in WHHL rabbits; format: in vivo, rabbit; conditions: for Free cholesterol / Phospholipids / Total cholesterol / Triglycerides: mean ± SEM, 5 animals
Description: Blood was drawn from rabbits after a 12-hour fast into tubes containing EDTA at the beginning of the study, every two weeks during treatment with the atherogenic diet, and at the end of the study. The total cholesterol and triglyceride concentrations (Sigma) as well as unesterified cholesterol and phospholipids (Wako Chemicals, Richmond, Va.) were determined on plasma samples using enzymatic methods on a Hitachi 911 Autoanalyzer (Boehringer Mannheim). Post-heparin hepatic lipase activity was determined as described (Iverius P H, Brunzell J D. Am J Physiol 1985; 249: E107-E114).

[3] = system: 22 month-old diabetic C57B6 mice; experiment: Diabetic nephropathy in aged streptozotocin-diabetic C57B6 mice (albuminuria, renal histology, morphometry, serum chemistry); format: in vivo, mouse
Description: 4 and 16-17 month-old female C57B6 mice were obtained from National Institute on Aging and were injected with streptozotocin to induce diabetes. Mice were given 50 μg/g of streptozotocin in every three days, for a total of 5-8 injections. A total of 250-400 μg/g of streptozotocin was sufficient in most of mice to induce stable hyperglycemia (≧250 mg/dL). The streptozotocin dose required to establish stable diabetes was similar between […] and 4 month-old mice. There was less than 10% of mortality in both age groups of diabetic mice with this streptozotocin protocol. Dead mice were excluded from further study. Mice with stable diabetes at 5 or 18 months of age were selected for randomization. Female C57B6 mice were chosen as the onset and nature of renal lesions in aging was documented by the inventors herein These mice have irregular, lengthened estrous cycles around 10 to 14 months of age and the cycles usually cease at 18 months of age. […] 18 month-old diabetic mice were randomly divided into PPS treated (n=10, PPS 25 mg/kg/day in drinking water) and control (n=11) groups. No PPS treatment was given to 5 month-old diabetic mice. Both age groups of diabetic mice were followed for 4 months without insulin treatment. Body weight and blood glucose levels were monitored weekly. Urine albumin excretion was measured bi-weekly using an ELISA kit (Bethyl Laboratory Inc, Houston, Tex., USA), as previously described (Zheng F, et al. Am J Pathol 2003, 162:1339-1348). Urine creatinine levels were measured in the same samples and the urine albumin excretion rate was expressed as the ratio of albumin to creatinine Blood urea nitrogen (BUN) levels and serum creatinine levels were examined at sacrifice. High-performance liquid chromatography (HPLC) was applied for determining serum creatinine levels using the method described by Yuen et al. (Am J Physiol Renal Physiol 2004, 286:F1116-1119).
Mice were sacrificed 4 months after stable hyperglycemia was established. Kidneys were perfused with a saline solution and subsequently one kidney was perfusion-fixed in situ with 4% paraformaldehyde for histologic studies. The tissues were embedded in glycol methacrylate or low melting paraffin, and stained with periodic acid Schiff (PAS) and Masson's Trichrome. Tissues were also postfixed for 1 hour in 1.0% osmium tetroxide, prestained in 1.25% uranyl acetate for 1 hour, dehydrated through a series of graded alcohol solutions, and embedded in EPON epoxy resin for electron microscopy. The glomerular volume and mesangial area were determined by examining plastic embedded sections using a digitizing tablet and video camera. The relative mesangial area was expressed as mesangial/glomerular surface area. Glomerular cell number was determined by counting the nuclear number in at least 30 glomeruli of each section. The glomerular basement membrane thickness was measured by the orthogonal intercept method on electron microscopic images. To determine the number of glomerular fenestrae, the length of was fenestrated or unfenestrated glomerular capillary endothelial cytoplasm was measured. Fenestrated endothelial cell cytoplasm was generally thin whereas the thickness of the unfenestrated endothelial cell cytoplasm was twice or more increased. Tubulointerstitial lesions were scored from 0 to 4 (0, no changes; 1+, changes affecting <25% of the sample; 2+, changes affecting 25 to 50% of the sample; 3+, changes affecting 50 to 75% of the sample; 4+, changes affecting 75 to 100% of the sample) based on tubular atrophy, increase in the thickness of basement membranes and interstitial area, and clusters of inflammatory cells.

NF-κB = NF-κB luciferase reporter assay in proximal tubular cells; format: cell-based, mouse; conditions: PPS 50-200 μg/ml, TNFα 10 ng/ml
Description: To further determine the effect of PPS on NF-κB transcription activity, proximal tubular cells were transfected with a NF-κB reporter in the presence or absence of PPS (50-200 μg/ml) and TNFα (10 ng/ml). Some cells were also transfected with a cDNA expression vector containing constitutively active IκB, dominant negative IKK, or IKK. A β-galactosidase cDNA expression vector was co-transfected with the NF-κB reporter to serve as an internal control for transfection efficiency. Luciferase and β-galactosidase activity were measured using substrate assays. The same amount of DNA (1 μg/well of 24 well plates) was used for each transfection throughout the experiments.

[4] = 45 days HC-diet, PPS group before start of PPS
[5] = 75 days HC-diet, PPS in drinking water for the last 30 days
[6] = Baseline (3 months of age), PPS group before treatment
[7] = 22 month-old diabetic mice treated with PPS, n = 10, at sacrifice, mean±SD
[8] = 22 month-old diabetic mice, PPS 25 mg/kg/day in drinking water, 4 months
[9] = morphometric analysis, PPS treated versus untreated 22 month-old diabetic mice

pentosan polysulfate [PPS]
intima/media ratio (I/M) compared to WHHL rabbits fed a HC-diet for 45 days ([1]; HC-diet 45 days, then oral PPS for an additional 30 days): not significantly different
area containing macrophages, relative to the total plaque area ([1]; RAM-11 staining, aortic cross sections, 75 days HC-diet, PPS last 30 days, mean±SEM): 35.56±1.51%
percent surface area of the intima occupied by lesions, reduction compared to water-treated controls ([1]; WHHL rabbits, HC-diet 75 days, PPS 30 mg/kg BW daily in drinking water for the last 30 days): approximately one-third
intima/media ratio (I/M) compared to water-treated controls ([1]; aortic arch and abdominal aorta, 75 days HC-diet, oral PPS for the last 30 days): significantly lower
Sirius red staining (collagen) in plaques ([1]; aortic arch sections, 75 days HC-diet, PPS last 30 days, mean±SEM): 47.43±2.93%
Free cholesterol [2, 4]: 1038.52 ± 128.80 mg/dL
Phospholipids [2, 4]: 1241.09 ± 142.75 mg/dL
Total cholesterol [2, 4]: 2133.28 ± 85.04 mg/dL
Triglycerides [2, 4]: 331.28 ± 86.61 mg/dL
Free cholesterol [2, 5]: 785.46 ± 93.22 mg/dL
Phospholipids [2, 5]: 878.17 ± 107.98 mg/dL
Total cholesterol [2, 5]: 1565.40 ± 212.07 mg/dL
Triglycerides [2, 5]: 184.10 ± 30.19 mg/dL
Free cholesterol [2, 6]: 282.92 ± 13.03 mg/dL
Phospholipids [2, 6]: 574.59 ± 26.44 mg/dL
Total cholesterol [2, 6]: 901.18 ± 50.30 mg/dL
Triglycerides [2, 6]: 762.91 ± 72.13 mg/dL
plasma lipid levels after 75 days of HC-diet versus 45 days ([2]; PPS-treated WHHL rabbits, a trend towards reduction was observed): not significantly different
BUN [3, 7]: 21.3 ± 5.6 mg/dL
Scr (serum creatinine) [3, 7]: 0.118 ± 0.02 mg/dL
reduction in tubulointerstitial lesions [3, 8]: ~80%
reduction of the increase in the albumin excretion rate [3, 8]: about 50%
reduction of glomerular endothelial fenestrations ([3]; morphometric analysis, PPS treated 22 month-old diabetic mice): largely prevented
glomerular basement membrane width [3, 9]: decreased
mesangial area [3, 9]: decreased
TNFα stimulated NF-κB transcriptional activity (NF-κB): dependently decreased
